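All cell lines were grown in 96-well plates and treated with compound for 48 hours. At the GI50, growth is halved. At the TGI there is no net growth.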 Some results are limits rather than exact numbers.

The test system of one assay is SNB-19 CNS. The experiment in a line: NCI tumour cell line growth inhibition, 48 h.
In turn, `C=C1C[C@]23CCC4C(C)(C)C(=O)CC[C@]4(C)C2C[C@H]1C(O)C3=O` (some centres not stated) gave a TGI above 75 µM.
`CC1(C)O/C(=C\c2ccccc2)C(=O)/C(=C/c2ccccc2)O1` gave a TGI above 100 µM.
`O=C1CC2C(=O)N(Cc3ccccc3)C1C=C2S(=O)(=O)c1ccccc1` (configuration not stated) came in with a TGI above 100 µM.
Regarding `Cc1ccc(S(=O)(=O)NCCNc2nccc(-c3c(-c4ccc(F)cc4)nc4sccn34)n2)cc1`, the GI50 was 9.41 µM and the TGI was 48.4 µM.
`O=c1[nH]c2cc(Cl)ccc2nc1/C(=N\O)C(O)c1ccc(Cl)cc1Cl` (configuration not stated) displayed a TGI above 100 µM.
As to `CC(C)CCCC(C)[C@H]1CCC2[C@H]3C(CC[C@@]21C)[C@@]1(C)CCC=C[C@]12C[C@@H]2[C@@H]3O` (some centres not stated), the TGI was above 100 µM.
As for `O=C(Nc1cc(Cl)ccc1Cl)C(=O)C(c1cnc2ccccc2n1)[N+](=O)[O-]` (configuration not stated), the TGI is above 100 µM.
Turning to `Cc1cc[c-]cc1.Fc1c[c-]c(-c2ccccn2)c(F)c1.[Pt+2].c1ccc(P(C[PH+](c2ccccc2)c2ccccc2)c2ccccc2)cc1`, the GI50 was 2.81 µM and the TGI was 12.8 µM.
Turning to `COC(=O)CCC(=O)CC1CC(=O)C2CCCN12` (configuration not stated), the TGI is above 100 µM.
Regarding `Cc1cc(NS(=O)(=O)c2ccc(Nc3c4ccccc4nc4c(C(=O)NCCN(C)C)cccc34)cc2)no1`, the TGI came out at 13 µM.
Same read-out and setting: next, `Nc1nc(CCl)nc(Nc2ccccc2)n1`: above 100 µM.
For `O=S1OC2(c3ccccc3-c3ccccc32)c2ccccc21` (configuration not stated), the TGI is above 100 µM.
`CCOC(=N)CC(=O)Nc1cccc(C)c1C` yielded a TGI above 100 µM.

The test system of a further assay is CCRF-CEM leukemia. Kind of assay: NCI tumour cell line growth inhibition, 48 h.
Molecule `COc1cc2ccc3c4cc(OC)c(OC(C)C)cc4cnc3c2cc1OC` showed a TGI above 100 µM.
As for `N#C/C(=C/N1CCN(C(=O)c2ccco2)C1=S)C(=O)c1ccccc1`, the GI50 is 41.9 µM and the TGI was above 100 µM.
Molecule `CC(=O)c1sc(-c2nc(C)c(C(=O)/C=C\c3ccc(/C=C\C(=O)c4sc(-c5nc(C)c(C(C)=O)s5)nc4C)cc3)s2)nc1C` had a TGI above 100 µM.
In turn, `CC1=NN(C(=O)CC(=O)N(C(=O)c2ccccc2Cl)c2ccc(C)cc2)C(=O)C1N=Nc1ccc([N+](=O)[O-])cc1` (configuration not stated) gave a TGI above 70.7 µM.
`CC(C)(C=O)CC(C#N)/C(=N\NC(N)=O)C(=O)Nc1ccccc1C(N)=O` (configuration not stated) gave a TGI above 100 µM.
Take `Cc1cc(C)c(C2[C@H]3C(=O)N(c4ccc(Cc5ccc(N6C(=O)[C@@H]7ON(c8ccccc8)C(c8c(C)cc(C)cc8C)[C@@H]7C6=O)cc5)cc4)C(=O)[C@H]3ON2c2ccccc2)c(C)c1` (some centres not stated): the TGI was above 100 µM.
Molecule `COc1ccc2[nH]c3c4c(ccc3c2c1)C(=O)C=CC4=O` came in with a TGI of 6.55 µM.
On the same count and under the same terms, next, `COc1cc(C)c2c(c1C)OC(=O)c1c(C)c(Cl)c(O)c(C=O)c1O2`: 47.3 µM; `COC(=O)/C(C=O)=C/Sc1ccccc1`: above 100 µM; `C=C1C[C@]23CCC4C(C)(C)C(=O)CC[C@]4(C)C2C[C@H]1C(O)C3=O` (some centres not stated): above 75 µM.
As to `CC1(C)O/C(=C\c2ccccc2)C(=O)/C(=C/c2ccccc2)O1`, the TGI was 44.4 µM.
As for `O=C1CC2C(=O)N(Cc3ccccc3)C1C=C2S(=O)(=O)c1ccccc1` (configuration not stated), the TGI is above 100 µM.
`O=c1[nH]c2cc(Cl)ccc2nc1/C(=N\O)C(O)c1ccc(Cl)cc1Cl` (configuration not stated): the TGI was above 100 µM.
As for `CC(C)CCCC(C)[C@H]1CCC2[C@H]3C(CC[C@@]21C)[C@@]1(C)CCC=C[C@]12C[C@@H]2[C@@H]3O` (some centres not stated), the TGI is above 100 µM.
Regarding `O=C(Nc1cc(Cl)ccc1Cl)C(=O)C(c1cnc2ccccc2n1)[N+](=O)[O-]` (configuration not stated), the TGI was above 100 µM.
As to `COC(=O)CCC(=O)CC1CC(=O)C2CCCN12` (configuration not stated), the TGI is above 100 µM.
Molecule `Cc1cc(NS(=O)(=O)c2ccc(Nc3c4ccccc4nc4c(C(=O)NCCN(C)C)cccc34)cc2)no1` registered a TGI of 11.1 µM.
Molecule `Nc1nc(CCl)nc(Nc2ccccc2)n1` yielded a TGI of 4.58 µM.
Consider `O=S1OC2(c3ccccc3-c3ccccc32)c2ccccc21` (configuration not stated), for which the TGI was above 100 µM.
Regarding `CCOC(=N)CC(=O)Nc1cccc(C)c1C`, the TGI is above 100 µM.

The next assay concerns U251 CNS. Kind of assay: NCI tumour cell line growth inhibition, 48 h.
Regarding `COc1cc2ccc3c4cc(OC)c(OC(C)C)cc4cnc3c2cc1OC`, the TGI is above 100 µM.
As to `N#C/C(=C/N1CCN(C(=O)c2ccco2)C1=S)C(=O)c1ccccc1`, the GI50 was 17 µM and the TGI is above 100 µM.
The corresponding values for `CN(CCCNC(=O)Cc1ccc2ccc3cccc4ccc1c2c34)CCCNc1cc(-c2ccc3ccccc3c2)nc2ccccc12` are 1.6 µM and 3.05 µM.
For `CC(=O)c1sc(-c2nc(C)c(C(=O)/C=C\c3ccc(/C=C\C(=O)c4sc(-c5nc(C)c(C(C)=O)s5)nc4C)cc3)s2)nc1C`, the TGI is above 100 µM.
Take `Cc1ccc(C2(O)CC(c3ccc([N+](=O)[O-])o3)=NN2C(=O)COc2ccc(Cl)cc2)cc1` (configuration not stated): the TGI stood at 9.09 µM.
In turn, `CC1=NN(C(=O)CC(=O)N(C(=O)c2ccccc2Cl)c2ccc(C)cc2)C(=O)C1N=Nc1ccc([N+](=O)[O-])cc1` (configuration not stated) displayed a TGI of 48.9 µM.
The same measure, in the same setting: with `CC(C)(C=O)CC(C#N)/C(=N\NC(N)=O)C(=O)Nc1ccccc1C(N)=O` (configuration not stated) the figure was above 100 µM; with `Cc1cc(C)c(C2[C@H]3C(=O)N(c4ccc(Cc5ccc(N6C(=O)[C@@H]7ON(c8ccccc8)C(c8c(C)cc(C)cc8C)[C@@H]7C6=O)cc5)cc4)C(=O)[C@H]3ON2c2ccccc2)c(C)c1` (some centres not stated), above 100 µM.
Take `COc1ccc2[nH]c3c4c(ccc3c2c1)C(=O)C=CC4=O`: the TGI came to 36.5 µM.
Turning to `CCCCOC(=O)NC(=O)c1cn(CCCOC(=O)NCCCCCCNC(=O)OCCCn2cc(C(=O)NC(=O)OCCCC)c(=O)[nH]c2=O)c(=O)[nH]c1=O`, the TGI was above 100 µM.
`COC(=O)/C(C=O)=C/Sc1ccccc1` gave a TGI of 42.2 µM.
On the same count and under the same terms, next, `Nc1ccn(C2(CO)C=C(CO)C(O)C2O)c(=O)n1` (configuration not stated): above 25.8 µM.
Molecule `C=C1C[C@]23CCC4C(C)(C)C(=O)CC[C@]4(C)C2C[C@H]1C(O)C3=O` (some centres not stated) displayed a TGI above 75 µM.
The molecule `CC1(C)O/C(=C\c2ccccc2)C(=O)/C(=C/c2ccccc2)O1` registered a TGI above 100 µM.
Turning to `O=C1CC2C(=O)N(Cc3ccccc3)C1C=C2S(=O)(=O)c1ccccc1` (configuration not stated), the TGI is above 100 µM.
With `Cc1ccc(S(=O)(=O)NCCNc2nccc(-c3c(-c4ccc(F)cc4)nc4sccn34)n2)cc1`, the GI50 is 4.72 µM and the TGI was determined as 22.6 µM.
Take `O=c1[nH]c2cc(Cl)ccc2nc1/C(=N\O)C(O)c1ccc(Cl)cc1Cl` (configuration not stated): the TGI is above 100 µM.
`CC(C)CCCC(C)[C@H]1CCC2[C@H]3C(CC[C@@]21C)[C@@]1(C)CCC=C[C@]12C[C@@H]2[C@@H]3O` (some centres not stated): the TGI was above 100 µM.
`O=C(Nc1cc(Cl)ccc1Cl)C(=O)C(c1cnc2ccccc2n1)[N+](=O)[O-]` (configuration not stated) had a TGI above 100 µM.
On to `Cc1cc[c-]cc1.Fc1c[c-]c(-c2ccccn2)c(F)c1.[Pt+2].c1ccc(P(C[PH+](c2ccccc2)c2ccccc2)c2ccccc2)cc1`, for which the GI50 was 2.32 µM and the TGI worked out at 12.2 µM.
Turning to `COC(=O)CCC(=O)CC1CC(=O)C2CCCN12` (configuration not stated), the TGI was above 100 µM.
The molecule `Cc1cc(NS(=O)(=O)c2ccc(Nc3c4ccccc4nc4c(C(=O)NCCN(C)C)cccc34)cc2)no1` yielded a TGI above 100 µM.

(Values after PubChem BioAssay (NCI).)
